Results as given in patent US20240207304A1, “Combination Therapies Comprising C/EBP Alpha saRNA” (MiNA Therapeutics Limited, priority 2021, published 2024).

Tested on: NAFLD and IR genes
Assay: Effects on NAFLD and IR gene expression in the liver
Excerpt: Abbreviations in Table 4-1 and Table 4-2: NAFLD: non-alcoholic fatty liver disease; IR: insulin resistance; DNL: de novo lipogenesis; FA: fatty acid; TG: triglycerides; LPL: lipoprotein lipase; HP: hepatic lipase; CHOL: cholesterol.

O=C1[C@H](CC[C@H](O)c2ccc(F)cc2)[C@@H](c2ccc(O)cc2)N1c1ccc(F)cc1 [Ezetimibe]
minor down: Effect on CD36 | Effect on DGAT2 | Effect on LDLR
down: Effect on APOC3 | Effect on FAS
up: Effect on ACACB (ACC2) | Effect on ChREBP (MLX1PL) | Effect on MTP (MTTP1) | Effect on PPARα | Effect on PPARγ | Effect on PPARγ-CoA 1α | Effect on PPARγ-CoA 1β (PERC) | Effect on SREBP-1c
minor up: Effect on ACACA (ACC1)
no change: Effect on mTOR
